Assay results from patent US12421193B2, “GPR52 modulators and methods of use” (Neurocrine Biosciences, Inc., priority 2020, dated 2025).
pEC50: −log10 of the molar value.

The compounds below were run against T1, recombinant human GPR52 (Homo sapiens, UniProt Q9Y2T5) (assay: TR-FRET cAMP assay (LANCE Ultra cAMP Kit), GPR52 activity). Conditions: Flp-In-CHO cells stably expressing recombinant human GPR52; cAMP production, normalized to the positive control.
T1 construct: expressed in transfected cells
Format: cell-based
Experimental: TR-FRET cAMP assays were performed using commercially available assay kits (LANCE™ Ultra cAMP Kit). Controls and compounds were solubilized in DMSO using ½ log dilution to generate duplicate 10-point dose response curves in 384-well polypropylene compound plates. Sixty nanoliters of the diluted compounds were transferred into 384-well NBS assay plates and further diluted to 1× with the addition of 2000 cells per well. Flp-In™—CHO cells that stably express recombinant human GPR52.
Cells were harvested with cell stripper and resuspended in Stimulation Buffer (5 mM HEPES, 0.1% bovine serum albumin (BSA), 0.5 mM IBMX, pH 7.4). After thirty minutes incubation at room temperature, detection reagents were added to each well. Plates were then incubated for 30 minutes at room temperature. The LANCE™ Ultra cAMP assay uses time-resolved fluorescence resonance energy transfer (TR-FRET) to detect cAMVP production; this signal was quantified using a Pherastar multi-mode plate reader.
Dose-response curves were generated from the fluorescence counts normalized to the positive control. E EC50 values were obtained using a nonlinear regression curve-fitting program.

T1 sequence (Q9Y2T5 whole entry): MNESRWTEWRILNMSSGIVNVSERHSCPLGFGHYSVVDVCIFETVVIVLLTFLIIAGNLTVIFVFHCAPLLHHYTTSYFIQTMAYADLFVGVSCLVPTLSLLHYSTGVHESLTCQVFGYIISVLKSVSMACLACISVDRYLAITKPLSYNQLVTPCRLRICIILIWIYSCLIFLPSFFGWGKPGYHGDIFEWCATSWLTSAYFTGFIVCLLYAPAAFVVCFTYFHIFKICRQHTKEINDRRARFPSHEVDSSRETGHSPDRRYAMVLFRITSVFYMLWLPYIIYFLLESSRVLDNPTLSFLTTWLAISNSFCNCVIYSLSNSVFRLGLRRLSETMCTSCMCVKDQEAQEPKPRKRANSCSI

Row | pEC50 | Compound
1 | 6.00 to 7.00 | Cc1cc(-c2cc(COc3ccc(F)cc3Cl)ccn2)ccc1C(N)=O [Example 45, 4-[4-(2-chloro-4-fluorophenoxymethyl)pyridin-2-yl]-2-methylbenzamide]
2 | 6.00 to 7.00 | Cc1ccccc1OCc1ccnc(-c2ccc(C(N)=O)c(C)c2)c1 [Example 46, 4-[4-(2-methylphenoxymethyl)pyridin-2-yl]-2-methylbenzamide]
3 | > 7.60 | Cc1cc(-c2cc(COc3ccc(F)c(Cl)c3)ccn2)ccc1C(N)=O [Example 47, 4-[4-(3-chloro-4-fluorophenoxymethyl)pyridin-2-yl]-2-methylbenzamide]
4 | > 7.60 | Cc1cc(-c2cc(COc3ccc(F)c(F)c3)ccn2)ccc1C(N)=O [Example 48, 4-[4-(3,4-difluorophenoxymethyl)pyridin-2-yl]-2-methylbenzamide]
5 | 7.00 to 7.60 | Cc1cc(-c2cc(COc3ccc(Cl)c(C#N)c3)ccn2)ccc1C(N)=O [Example 49, 4-[4-(4-chloro-3-cyanophenoxymethyl)pyridin-2-yl]-2-methylbenzamide]
6 | 7.00 to 7.60 | Cc1cc(-c2cc(COc3cccc(Cl)c3F)ccn2)ccc1C(N)=O [Example 50, 4-[4-(3-chloro-2-fluorophenoxymethyl)pyridin-2-yl]-2-methylbenzamide]
7 | 7.00 to 7.60 | COc1cc(Cl)ccc1OCc1ccnc(-c2ccc(C(N)=O)c(C)c2)c1 [Example 51, 4-[4-(4-chloro-2-methoxyphenoxymethyl)pyridin-2-yl]-2-methylbenzamide]
8 | 7.00 to 7.60 | Cc1cc(-c2cc(COc3cccc(F)c3F)ccn2)ccc1C(N)=O [Example 52, 4-[4-(2,3-difluorophenoxymethyl)pyridin-2-yl]-2-methylbenzamide]
9 | 7.00 to 7.60 | CSc1ccccc1OCc1ccnc(-c2ccc(C(N)=O)c(C)c2)c1 [Example 53, 4-{4-[2-(methylsulfanyl)phenoxymethyl]pyridin-2-yl}-2-methyl benzamide]
10 | > 7.60 | Cc1cc(-c2cc(COc3cc(F)c(F)c(Cl)c3)ccn2)ccc1C(N)=O [Example 54, 4-[4-(3-chloro-4,5-difluorophenoxymethyl)pyridin-2-yl]-2-methylbenzamide]
11 | > 7.60 | COc1cc(OCc2ccnc(-c3ccc(C(N)=O)c(C)c3)c2)ccc1C#N [Example 55, 4-[4-(4-cyano-3-methoxyphenoxymethyl)pyridin-2-yl]-2-methylbenzamide]
12 | > 7.60 | Cc1cc(-c2cc(COc3cc(F)c(Cl)c(F)c3)ccn2)ccc1C(N)=O [Example 56, 4-[4-(4-chloro-3,5-difluorophenoxymethyl)pyridin-2-yl]-2-methylbenzamide]
13 | > 7.60 | Cc1cc(-c2cc(COc3cc(F)c(F)c(F)c3)ccn2)ccc1C(N)=O [Example 57, 4-[4-(3,4,5-trifluorophenoxymethyl)pyridin-2-yl]-2-methyl benzamide]
14 | 7.00 to 7.60 | COc1cc(OCc2ccnc(-c3ccc(C(N)=O)c(C)c3)c2)ccc1C(F)(F)F [Example 58, 4-{4-[3-methoxy-4-(trifluoromethyl)phenoxymethyl]pyridin-2-yl}-2-methylbenzamide]
15 | 6.00 to 7.00 | CCC(=O)c1ccc(OCc2ccnc(-c3ccc(C(N)=O)c(C)c3)c2)cc1 [Example 59, 4-[4-(4-propanoylphenoxymethyl)pyridin-2-yl]2-methylbenzamide]
16 | > 7.60 | CC(=O)c1ccc(OCc2ccnc(-c3ccc(C(N)=O)c(C)c3)c2)cc1F [Example 60, 4-[4-(4-acetyl-3-fluorophenoxymethyl)pyridin-2-yl]-2-methylbenzamide]
17 | > 7.60 | COc1cc(OCc2ccnc(-c3ccc(C(N)=O)c(C)c3)c2)ccc1F [Example 61, 4-[4-(4-fluoro-3-methoxyphenoxymethyl)pyridin-2-yl]-2-methylbenzamide]

Row | pEC50 | Compound
18 | > 7.60 | COc1ccc(OCc2ccnc(-c3ccc(C(N)=O)c(C)c3)c2)cc1F [Example 62, 4-[4-(3-fluoro-4-methoxyphenoxymethyl)pyridin-2-yl]-2-methylbenzamide]
19 | 6.00 to 7.00 | Cc1cc(-c2cc(COc3ccc4c(c3)OCC4)ccn2)ccc1C(N)=O [Example 63, 4-{4-[(2,3-dihydro-1-benzofuran-6-yloxy)methyl]pyridin-2-yl}-2-methylbenzamide]
20 | > 7.60 | Cc1cc(-c2cc(COc3ccc4c(c3)CCO4)ccn2)ccc1C(N)=O [Example 64, 4-{4-[(2,3-dihydro-1-benzofuran-5-yloxy)methyl]pyridin-2-yl}-2-methylbenzamide]
21 | > 7.60 | Cc1cc(-c2cc(COc3ccc(C(F)(F)F)c(F)c3)ccn2)ccc1C(N)=O [Example 65, 4-{4-[3-fluoro-4-(trifluoromethyl)phenoxymethyl]pyridin-2-yl}-2-methylbenzamide]
22 | 7.00 to 7.60 | Cc1cc(-c2cc(COc3cc(C(F)(F)F)nn3C)ccn2)ccc1C(N)=O [Example 66, 4-[4-({[1-methyl-3-(trifluoromethyl)-1H-pyrazol-5-yl]oxy}methyl)pyridin-2-yl]2-methylbenzamide]
23 | > 7.60 | Cc1cc(-c2cc(COc3cccc(C(F)F)c3)ccn2)ccc1C(N)=O [Example 67, 4-{4-[3-(difluoromethyl)phenoxymethyl]pyridin-2-yl}-2-methylbenzamide]
24 | 7.00 to 7.60 | Cc1cc(-c2cc(COc3ccc(C(C)(C)O)cc3)ccn2)ccc1C(N)=O [Example 69, 4-{4-[4-(2-hydroxypropan-2-yl)phenoxymethyl]pyridin-2-yl}-2-methylbenzamide]
25 | > 7.60 | Cc1cc(-c2cc(COc3cc(F)cc(C4CC4)c3)ccn2)ccc1C(N)=O [Example 70, 4-[4-(3-cyclopropyl-5-fluorophenoxymethyl)pyridin-2-yl]-2-methylbenzamide]
26 | > 7.60 | Cc1cc(-c2cc(COc3ccc(C4CC4)c(F)c3)ccn2)ccc1C(N)=O [Example 71, 4-[4-(4-cyclopropyl-3-fluorophenoxymethyl)pyridin-2-yl]-2-methylbenzamide]
27 | 6.00 to 7.00 | Cc1cc(-c2cc(COc3ccc4nn(C)cc4c3)ccn2)ccc1C(N)=O [Example 72, 4-(4-{[(2-methyl-2H-indazol-5-yl)oxy]methyl}pyridin-2-yl)-2-methyl benzamide]
28 | 6.00 to 7.00 | Cc1cc(-c2cc(COc3cccc(CC#N)c3)ccn2)ccc1C(N)=O [Example 73, 4-{4-[3-(cyanomethyl)phenoxymethyl]pyridin-2-yl}-2-methylbenzamide]
29 | 6.00 to 7.00 | COc1cncc(OCc2ccnc(-c3ccc(C(N)=O)c(C)c3)c2)c1 [Example 74, 4-(4-{[(5-methoxypyridin-3-yl)oxy]methyl}pyridin-2-yl)-2-methylbenzamide]
30 | 6.00 to 7.00 | Cc1cc(-c2cc(COc3cncc(C#N)c3)ccn2)ccc1C(N)=O [Example 75, 4-(4-{[(5-cyanopyridin-3-yl)oxy]methyl}pyridin-2-yl)-2-methylbenzamide]
31 | > 7.60 | NC(=O)c1ccc(-c2cc(COc3ccc(C(F)(F)F)cc3)ccn2)cc1Cl [Example 76, 4-{4-[4-(trifluoromethyl)phenoxymethyl]pyridin-2-yl}2-chlorobenzamide]
32 | 7.00 to 7.60 | N#Cc1ccc(OCc2ccnc(-c3ccc(C(N)=O)c(Cl)c3)c2)cc1F [Example 77, 4-[4-(4-cyano-3-fluorophenoxymethyl)pyridin-2-yl]-2-chlorobenzamide]
33 | 7.00 to 7.60 | NC(=O)c1ccc(-c2cc(COc3ccc(C(F)(F)F)cc3)ccn2)cc1C(F)(F)F [Example 78, 4-{4-[4-(trifluoromethyl)phenoxymethyl]pyridin-2-yl}-2-(trifluoromethyl)benzamide]
